Assays:
[1] = tested on: DLD1 cells (4NCA and 4N); type: cell-based; conditions: human
Procedure: (§1) Inhibition of HSET-mediated clustering was measured using a phenotypic assay measuring the formation of multipolar metaphase spindles in DLD1 cells with (4NCA) or without (4N) centrosome amplification. 4NCA cells were generated by treating 2N DLD1 cells with 2 μΜ DCB for 24 h, washed, and released in growth media for 24 h. 4N and 4NCA DLD1 cells were plated in 96-well ibidi μ-Clear plates (IB-89626, ibidi) with a no. 1.5 polymer coverslip bottom with optimal imaging properties. To enrich the mitotic population, cells were first treated for 3.5 h with 8 μM pro-TAME (I-440-01M, R&D system), an inhibitor of APC/C that transiently arrests cells in metaphase without affecting the structure of the spindle. Following the initial arrest, cells were treated with HSET compounds in the presence of 8 μM MG-132 (S2619, SelleckChem), a proteasome inhibitor that helps to maintain the metaphase arrest, where the number of spindle poles/cell can be optimally quantified by an automated segmentation analysis.
(§2) Cells were then fixed in methanol and stained for 3 h for mitotic pole marker aurora A (1:1000 610939 mouse anti-IAK1, BD Biosciences) and phosphorylated histone H3 (1:1500 ab47297 anti-histone H3 pS10, Abcam) as a marker of mitotic cells in 1.5% FBS in PBS. Following primary antibody treatment, cells were incubated with secondary antibodies Alexa Fluor 488 goat antimouse and Alexa Fluor 555 goat antirabbit (1:1500, A11029 and A21429, respectively, Life Technologies) together with 1 μg/mL DAPI (D9542, Sigma) in 1.5% FBS in PBS. Image acquisition was performed at 10× using the GE INCELL 2200 High Content Imaging System (Cytiva) and analyzed using the InCell Investigator software. Mitotic cells were identified by high pHH3 staining and were scored as multipolar if they had more than two mitotic spindle poles. The percentage of multipolar mitoses was calculated by dividing the number of multipolar mitoses by the total of all visible mitoses in one well of a 96-well plate (n > 100 for each replicate, two replicates per concentration point).
3. […]

[2] = target: T1, GST-tagged Eg5 motor domain (Homo sapiens, UniProt P52732); experiment: ADP-Glo Eg5 assay (4.8 μM ATP); type: biochemical; conditions: preformed microtubules, 4.8 μM ATP (Table 4)
T1 construct: 4 nM GST-tagged Eg5 motor domain protein (Cytoskeleton, EG01); purchased Cytoskeleton EG01
T1 sequence (P52732 18-359 limits assumed): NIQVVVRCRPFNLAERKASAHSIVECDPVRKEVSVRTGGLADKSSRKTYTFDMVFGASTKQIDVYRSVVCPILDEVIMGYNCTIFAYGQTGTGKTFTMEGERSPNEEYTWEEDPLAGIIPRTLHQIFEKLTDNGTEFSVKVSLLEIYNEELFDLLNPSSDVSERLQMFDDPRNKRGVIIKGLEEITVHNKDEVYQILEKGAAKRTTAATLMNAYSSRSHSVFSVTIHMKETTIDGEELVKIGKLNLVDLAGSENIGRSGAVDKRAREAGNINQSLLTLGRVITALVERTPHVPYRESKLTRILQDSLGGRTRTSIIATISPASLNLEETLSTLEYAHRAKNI
Procedure: (§3) The HSET or Eg5 ATPase activity was measured using the ADP-Glo Kinase Assay kit (Promega, V9102). The assays were run using final concentrations of 5 nM full-length human N-terminal His-tag HSET or 4 nM GST-tagged Eg5 motor domain protein (Cytoskeleton, EG01) and an assay buffer containing 20 mM HEPES pH 6.8, 10 mM MgCl2, 0.25 mM EGTA, 0.4 mM Triton X-100, and 1 mM DTT. Preformed microtubules (Universal Biologicals Cambridge, bovine MT001-XL, or porcine MT002-XL), which were reconstituted in 15 mM PIPES pH 7, 1 mM MgCl2, and 20 μM paclitaxel, were present at a final assay concentration of 70 μg/mL. A reaction volume of 5 μL was used in Proxiplate 384 plus white assay plates (PerkinElmer, 6008280). To measure compound inhibition, 100 nL of compound dissolved in DMSO or DMSO alone was preincubated with the HSET and microtubules for 10 min before 3 μM Ultra-Pure ATP was added to start the ATPase reaction for the 3 μM ATP HSET assay. For the 500 μM ATP HSET assay, the addition of 500 μM Ultra-Pure ATP was used. For the Eg5 ATPase assay, 4.8 μM Ultra-Pure ATP was used. All reactions were incubated at 25 °C for 80 min and then stopped by the addition of 5 μL of the ADP-Glo reagent. 10 μL of Kinase Detection Reagent was then added after a further 45 min of incubation. The luminescence was read after 45 min on a PheraStar FSX plate reader (BMG Labtech). The data processing was performed using Dotmatics Studies software package. Percentage inhibition was determined based on normalization to high controls (0% inhibition, all reagents with 100 nL of DMSO alone) and low controls (100% inhibition […], without HSET). The IC50 values for each compound were determined using a four-parameter logistic curve fit of % inhibition versus concentration.

[3] = target: T2, recombinant full-length HSET (Homo sapiens, UniProt Q9BW19); experiment: ADP-Glo HSET assay (500 μM ATP); type: biochemical; conditions: high ATP concentration of 500 μM; single determination or mean of two
T2 construct: 5 nM full-length human N-terminal His-tag HSET; His-tag (N)
T2 sequence (Q9BW19 1-673): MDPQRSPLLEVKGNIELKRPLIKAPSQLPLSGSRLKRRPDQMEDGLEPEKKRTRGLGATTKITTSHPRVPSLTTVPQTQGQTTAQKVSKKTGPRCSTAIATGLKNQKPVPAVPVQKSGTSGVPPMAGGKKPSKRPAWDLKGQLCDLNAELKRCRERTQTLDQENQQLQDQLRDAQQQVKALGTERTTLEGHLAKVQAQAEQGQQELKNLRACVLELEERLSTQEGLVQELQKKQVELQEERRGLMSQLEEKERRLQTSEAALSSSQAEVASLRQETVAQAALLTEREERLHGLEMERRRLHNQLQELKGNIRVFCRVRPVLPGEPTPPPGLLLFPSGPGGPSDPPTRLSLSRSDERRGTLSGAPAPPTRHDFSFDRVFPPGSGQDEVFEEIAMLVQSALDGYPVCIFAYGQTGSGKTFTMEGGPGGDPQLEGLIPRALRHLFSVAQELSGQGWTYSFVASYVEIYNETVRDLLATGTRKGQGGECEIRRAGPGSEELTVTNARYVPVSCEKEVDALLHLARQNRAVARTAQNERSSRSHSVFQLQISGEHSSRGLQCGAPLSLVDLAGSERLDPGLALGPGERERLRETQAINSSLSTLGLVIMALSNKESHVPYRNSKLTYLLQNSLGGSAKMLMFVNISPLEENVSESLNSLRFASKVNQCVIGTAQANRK
Procedure: as §3

[4] = target: T2, recombinant full-length HSET; experiment: ADP-Glo HSET assay (3 μM ATP), microtubule-stimulated ATPase; type: biochemical; conditions: for IC50: preformed microtubules, 3 μM ATP, read-out: HSET ADP-Glo IC50
In short: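 His-tagged full-length HSET (5 nM) or GST-Eg5 motor domain (4 nM), with 70 μg/mL paclitaxel-stabilised microtubules in HEPES pH 6.8 buffer, was preincubated with compound for 10 min. ATP was then added (3 or 500 μM for HSET, 4.8 μM for Eg5), followed by 80 min at 25 °C and ADP-Glo luminescence. IC50 was fitted with a four-parameter logistic.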

[5] = tested on: centrosome-amplified (4NCA) DLD1 cells; experiment: Multipolar spindle assay (4NCA cell line); type: cell-based, human
Source text: (§4) The cellular models consisted of chromosomally stable human colon cancer DLD1 diploid (2N) and tetraploid (4N) cells, along with tetraploid centrosome -amplified (4NCA) DLD1 cells and DLD1 HSET knockout (KO) cells. DLD1 2N and 4N cells were generated and characterized as previously described.[27],[41],[42] In order to generate 4NCA cells, we used dihydro-cytochalasin B (DCB) to transiently block cytokinesis and induce tetraploidisation and centrosome amplification in DLD1 cells. Centrosome amplification in 4NCA cells is transient and therefore they were generated from 2N cells for each run of the assay.[27] The DLD1 HSET KO cells were knockout clones generated by CRISPR and validated by sequencing to have a homozygous deletion in the KIFC1 gene.
as §1, §2

[6] = tested on: non-centrosome amplified DLD1 (4N) cells; experiment: Multipolar spindle assay (4N cell line); type: cell-based, human
Source text: as §4, §1, §2

[7] = target: T3, full-length HSET (FL HSET) (Homo sapiens, UniProt Q9BW19); experiment: Fluorescence polarization probe Kd determination; type: binding
T3 construct: 5 nM full-length human N-terminal His-tag HSET; His-tag (N)
T3 sequence (Q9BW19 1-673): T2 sequence (Q9BW19 1-673)
Procedure: Steady-state fluorescence polarization binding assays were performed using the fluorescence-tagged probe 37. All assays were performed in a black ProxiPlate-384 Plus plate (PerkinElmer, 6008260) in a 10 μL volume in buffer containing 20 mM HEPES pH 7.5, 200 mM NaCl, 1 mM TCEP, 10 mM MgCl2, 0.1 mM Triton X-100, and 5% glycerol (v/v). Full-length human N-terminal His-tag HSET was used, with a final concentration of 2.5 nM 37 probe. The assays were sealed and incubated in the dark at 25 °C and then the FP signal was read on an EnVision multimode plate reader (PerkinElmer Life Sciences) using excitation at 620 nm and parallel and perpendicular emissions at 688 nm. All data processing was done using Prism (GraphPad Software).
For the probe Kd determinations, FL HSET final concentrations were used between 2000 and 0.5 nM. When present, preformed microtubules (Universal Biologicals Cambridge, bovine MT001-XL or porcine MT002-XL), which were reconstituted in 15 mM PIPES pH 7, 20 μM paclitaxel, or reconstitution buffer alone, were preincubated with HSET for 10 min and then added to the probe. The plate was read after 3 h of incubation in the dark at 25 °C. Kd values were determined using a 1:1 site binding model of the fluorescence polarization versus protein concentration.

Row | Structure (SMILES) | concentration at which cellular toxicity observed [1] [µM] | IC50 [2] [nM] | IC50 [3] [nM] | LE ([4]; LE = −1.4Log(IC50 [M])/number of non-hydrogen atoms (Table 1)) | LLE ([4]; LLE = −Log(IC50 [M]) – cLogP (MoKa) (Table 1)) | IC50 ([4]; mean (±SD) n ≥ 3 (Table 4)) [nM] | IC50 ([4]; mean (±SD) n ≥ 3, >200 from a single determination (Table 1)) [nM] | % multipolarity above baseline @ 15 μM (4NCA cells) ([5]; 15 μM, 4NCA DLD1 cells (Table 4)) [%] | % multipolarity above baseline @ 15 μM (4NCA cells) ([5]; 15 µM, 4NCA cells, supplementary CSV) [%] | increase in mitotic spindle multipolarity (4NCA) ([5]; 15 μM, centrosome-amplified (4NCA) DLD1 cell line) [%] | % Multipolarity above baseline @ 15 mM (4N cells) ([6]; 15 μM, 4N cells, supplementary CSV) [%] | effect on multipolar mitoses (4N), in words ([6]; 15 μM, non-centrosome amplified DLD1 (4N) cell line) | % multipolarity above baseline @ 15 μM (4N cells) ([6]; 4N DLD1 cells (Table 4)) [%] | LE ([4]; LE = −1.4Log(IC50 [M])/number of non-hydrogen atoms (Table 2)) | LLE ([4]; LLE = −Log(IC50 [M]) – cLogP (MoKa) (Table 2)) | IC50 ([4]; mean (±SD) n ≥ 3, >200 from a single determination (Table 2)) [nM] | Kd ([7]; FL HSET + MT buffer only) [nM] | Kd ([7]; isolated full-length HSET, no microtubules) [nM] | IC50 ([4]; mean (±SD) n ≥ 3 (37 n = 2, 38 single determination) (Table 3)) [nM]
1 | CCCc1cc(C(=O)N[C@H](Cc2ccc(-c3cccc(OC(F)(F)F)c3)nc2)C(=O)N[C@@H]2CCNC2)sc1C [Compound 1, 5-Methyl-6N-((R)-1-oxo-1-((R)-pyrrolidin-3-ylamino)-3-(6-(3-(trifluoromethoxy)phenyl)pyridin-3-yl)propan-2-yl)-4-propylthiophene-2-carboxamide, reference compound] | 6 | 35600 | 825 | 0.25 | 1.5 | 171 | 171 |  |  |  |  |  |  |  |  |  |  |  | 
2 | CCOC(=O)c1sc(NC(=O)CCNC(=O)c2cccc(-c3noc(C)n3)c2)cc1C [Compound 26, Ethyl 3-Methyl-5-(3-(3-(5-methyl-1,2,4-oxadiazol-3-yl)benzamido)propanamido)thiophene-2-carboxylate] |  | > 200000 | 332 |  |  | 93 |  | 13 | 13 | ~10 | 1 | no increases in multipolar mitoses | 1 | 0.32 | 3.7 | 93 |  |  | 
3 | CCCOC(=O)c1sc(NC(=O)C[C@H](CCCNC(=O)CCCCC[N+]2=C(/C=C/C=C/C=C3/N(C)c4ccc(S(=O)(=O)O)cc4C3(C)C)C(C)(C)c3cc(S(=O)(=O)O)ccc32)NC(=O)c2cccc(-c3noc(C)n3)c2)nc1C [Compound 37, 3,3-Dimethyl-1-(6-(((S)-4-(3-(5-methyl-1,2,4-oxadiazol-3-yl)benzamido)-6-((4-methyl-5-(propoxycarbonyl)thiazol-2-yl)amino)-6-oxohexyl)amino)-6-oxohexyl)-5-sulfo-2-((1E,3E)-5-((E)-1,3,3-trimethyl-5-sulfoindolin-2-ylidene)penta-1,3-dien-1-yl)-3H-indol-1-ium] |  |  |  |  |  |  |  |  |  |  |  |  |  |  |  |  | 675 ± 148 | 371 | 257

— paper PMC9969401, “Discovery of 2-(3-Benzamidopropanamido)thiazole-5-carboxylate Inhibitors of the Kinesin HSET (KIFC1) and the Development of Cellular Target Engagement Probes” (Journal of Medicinal Chemistry, 2023)
